Results on 14 compounds are retold here after patent US8598365B2, “Herbicides” (Syngenta Limited, priority 2007, dated 2013).

The structures appear in SMILES notation.

Common to all, as to format: in vivo
Experiment [1] relates to Alopecurus myosuroides (ALOMY). Nature of the experiment: Example B pre-emergence herbicidal activity. To be noted: 312 h, rate 250 g/ha, evaluated after 13 days, read-out: Pre-Emergence Activity ALOMY (100=total damage to plant; 0=no damage to plant). As to the method:
(§1) Seeds of a variety of test species were sown in standard soil in pots. After cultivation for one day (pre-emergence) or after 8 days cultivation (post-emergence) under controlled conditions in a glasshouse (at 24/16° C., day/night; 14 hours light; 65% humidity), the plants were sprayed with an aqueous spray solution derived from the formulation of the technical active ingredient in acetone/water (50:50) solution containing 0.5% Tween 20 (polyoxyethelyene sorbitan monolaurate, CAS RN 9005-64-5).
(§2) The test plants were then grown in a glasshouse under controlled conditions in a glasshouse (at 24/16° C., day/night; 14 hours light; 65% humidity) and watered twice daily. After 13 days for pre and post-emergence, the test was evaluated (100=total damage to plant; 0=no damage to plant).
(§3) Alopecurus myosuroides (ALOMY), Avena fatua (AVEFA), Setaria faberi (SETFA), Echinochloa crus-galli (ECHCG), Solanum nigrum (SOLNI) and Amaranthus retoflexus (AMARE)

For experiment [2], the system named is Amaranthus retoflexus (AMARE). Put plainly: Example B pre-emergence herbicidal activity. The following applies: Amaranthus retroflexus, 312 h, rate 250 g/ha, evaluated after 13 days, read-out: Pre-Emergence Activity AMARE (100=total damage to plant; 0=no damage to plant). The method, then:
as §1, §2, §3

For experiment [3], the system named is Avena fatua (AVEFA). Put plainly: Example B pre-emergence herbicidal activity. The following applies: 312 h, rate 250 g/ha, evaluated after 13 days, read-out: Pre-Emergence Activity AVEFA (100=total damage to plant; 0=no damage to plant). As to the method: as §1, §2, §3
For experiment [4], the system named is Echinochloa crus-galli (ECHCG). Nature of the experiment: Example B pre-emergence herbicidal activity. The following applies: 312 h, rate 250 g/ha, evaluated after 13 days, read-out: Pre-Emergence Activity ECHCG (100=total damage to plant; 0=no damage to plant). As to the method: as §1, §2, §3
Experiment [5] relates to Setaria faberi (SETFA). Nature of the experiment: Example B pre-emergence herbicidal activity. To be noted: 312 h, rate 250 g/ha, evaluated after 13 days, read-out: Pre-Emergence Activity SETFA (100=total damage to plant; 0=no damage to plant). As to the method:
as §1, §2, §3

Experiment [6] concerns Alopecurus myosuroides (ALOMY). Nature of the experiment: Example B post-emergence herbicidal activity. The following applies: 312 h, rate 250 g/ha, evaluated after 13 days, read-out: Post-emergence activity ALOMY (100=total damage to plant; 0=no damage to plant). As to the method:
as §1, §2, §3

The subject of experiment [7] is Amaranthus retoflexus (AMARE). Nature of the experiment: Example B post-emergence herbicidal activity. The following applies: Amaranthus retroflexus, 312 h, rate 250 g/ha, evaluated after 13 days, read-out: Post-emergence activity AMARE (100=total damage to plant; 0=no damage to plant). The method, then: as §1, §2, §3
Experiment [8] relates to Avena fatua (AVEFA). Put plainly: Example B post-emergence herbicidal activity. The following applies: 312 h, rate 250 g/ha, evaluated after 13 days, read-out: Post-emergence activity AVEFA (100=total damage to plant; 0=no damage to plant). As to the method:
as §1, §2, §3

Experiment [9] relates to Echinochloa crus-galli (ECHCG). Nature of the experiment: Example B post-emergence herbicidal activity. To be noted: 312 h, rate 250 g/ha, evaluated after 13 days, read-out: Post-emergence activity ECHCG (100=total damage to plant; 0=no damage to plant). The method, then:
as §1, §2, §3

Experiment [10] deals with Setaria faberi (SETFA). Put plainly: Example B post-emergence herbicidal activity. The following applies: 312 h, rate 250 g/ha, evaluated after 13 days, read-out: Post-emergence activity SETFA (100=total damage to plant; 0=no damage to plant). The method, then: as §1, §2, §3

For `CCc1sc(-c2ccc(Cl)cc2)nc1C1=C(OC(=O)C2CC2)C2CCC(C2)C1=O` (stereo not drawn) [Compound P1], the pest or weed control at 250 g/ha in experiment [1] stood at 80%; in experiment [2], 0%; in experiment [3] it was 0%; in experiment [4] it was 100%; in experiment [5], 100%; in experiment [6], 100%. Besides, the pest or weed control at 250 g/ha was 0% in experiment [7], 100% in experiment [8], 100% in [9] and 100% in experiment [10].
As to `CCc1sc(-c2ccc(Cl)cc2)nc1C1=C(OC(=O)C(C)(C)C)C2CCC(C2)C1=O` (stereo not drawn) [Compound P2, 2,2-dimethylpropionic acid 3-[2-(4-chloro-phenyl)-5-ethylthiazol-4-yl]-4-oxobicyclo[3.2.1]oct-2-en-2-yl ester], the pest or weed control at 250 g/ha in experiment [1] turned out to be 80%; in experiment [2], 0%; in [3] it was 40%; in experiment [4] it was 100%; in experiment [5], 100%; in experiment [6], 100%. Further, the pest or weed control at 250 g/ha worked out at 0% in experiment [7], 100% in [8], 100% in experiment [9] and 100% in experiment [10].
`Cc1sc(-c2ccc(Cl)c(Cl)c2)nc1C1=C(OC(=O)C(C)(C)C)[C@H]2CC[C@H](C2)C1=O` [Compound P3]: the pest or weed control at 250 g/ha came out at 20% in experiment [1]; 0% in [2]; 0% in [3]; 80% in [4]; 100% in experiment [5]; 60% in [6]. For the same compound, the pest or weed control at 250 g/ha in experiment [7] came to 0%; in [8], 0%; in experiment [9] it was 80%; in [10], 100%.
In the case of `Cc1sc(-c2ccc(Cl)c(C(F)(F)F)c2)nc1C1=C(OC(=O)C(C)(C)C)[C@H]2CC[C@H](C2)C1=O` [Compound P4], the pest or weed control at 250 g/ha in [1] amounted to 0%; in experiment [2] it was 40%; in experiment [3], 0%; in experiment [4], 0%; in experiment [5], 90%; in experiment [6], 20%. For the same compound, the pest or weed control at 250 g/ha in [7] came to 0%; in experiment [8] it was 0%; in experiment [9] it was 80%; in [10], 80%.
Consider `CCOC(=O)/C=C/OC1=C(c2nc(-c3ccc(Cl)cc3)sc2CC)C(=O)[C@H]2CC[C@@H]1C2` [Compound P5], for which the pest or weed control at 250 g/ha stood at 100% in experiment [1]; 0% in experiment [2]; 30% in [3]; 40% in experiment [4]; 100% in experiment [5]; 100% in [6]. In addition, the pest or weed control at 250 g/ha was determined as 0% in [7], 90% in experiment [8], 100% in experiment [9] and 100% in experiment [10].
Take `CC(=O)OC1=C(c2nc(-c3ccc(Br)cn3)sc2C)C(=O)[C@H]2CC[C@@H]1C2` [Compound P6]: the pest or weed control at 250 g/ha in experiment [1] was 20%; in experiment [2], 0%; in experiment [3], 0%; in [4], 20%; in experiment [5], 100%; in experiment [6], 90%. Besides, the pest or weed control at 250 g/ha in [7] worked out at 0%; in experiment [8] it was 80%; in experiment [9] it was 100%; in [10] it was 100%.
As for `Cc1sc(-c2ccc(Br)cn2)nc1C1=C(OC(=O)C2CC2)[C@@H]2CC[C@@H](C2)C1=O` [Compound P7], the pest or weed control at 250 g/ha worked out at 30% in experiment [1]; 0% in [2]; 0% in [3]; 20% in experiment [4]; 90% in experiment [5]; 90% in experiment [6]. In addition, the pest or weed control at 250 g/ha came to 0% in [7], 90% in experiment [8], 100% in experiment [9] and 100% in [10].
Regarding `Cc1sc(-c2ccc(Br)cn2)nc1C1=C(OC(=O)C(C)(C)C)[C@@H]2CC[C@@H](C2)C1=O` [Compound P8], the pest or weed control at 250 g/ha in experiment [1] turned out to be 20%; in experiment [2], 0%; in experiment [3], 0%; in [4], 50%; in experiment [5], 100%; in experiment [6], 70%. The pest or weed control at 250 g/ha in [7] amounted to 0%; in [8] it was 80%; in experiment [9], 0%; in experiment [10], 100%.
For `Cc1cc(-c2nc(C3C(=O)[C@@H]4CC[C@@H](C4)C3=O)c(C)s2)ccc1Cl` (stereo partly drawn) [Compound T4], the pest or weed control at 250 g/ha was 50% in [1]; 0% in [2]; 0% in experiment [3]; 60% in experiment [4]; 30% in experiment [5]; 60% in [6]. The pest or weed control at 250 g/ha in [7] stood at 0%; in [9] it was 100%; in [10], 80%.
In the case of `O=C1C(c2cncc(Cl)c2)C(=O)[C@H]2CC[C@@H]1C2` (stereo partly drawn) [Compound T85], the pest or weed control at 250 g/ha turned out to be 0% in [1]; 30% in [2]; 0% in experiment [3]; 0% in experiment [4]; 0% in experiment [5].
In the case of `CCc1sc(-c2ccc(OC(C)C)c(Cl)c2)nc1C1C(=O)[C@@H]2CC[C@@H](C2)C1=O` (stereo partly drawn) [Compound T114], the pest or weed control at 250 g/ha was determined as 10% in [6]; 0% in experiment [7]; 0% in [8]; 60% in experiment [9]; 90% in experiment [10].
In the case of `Cc1ncc(-c2ccc(Cl)cc2)cc1C1C(=O)[C@@H]2CC[C@@H](C2)C1=O` (stereo partly drawn) [Compound T118], the pest or weed control at 250 g/ha was 60% in experiment [6]; 0% in experiment [7]; 80% in [8]; 60% in experiment [9]; 80% in experiment [10].
With `Cc1sc(-c2ccc(Cl)cc2)nc1C1C(=O)[C@H]2C[C@@H](C1=O)C2(C)C` (stereo partly drawn) [Compound T120], the pest or weed control at 250 g/ha is 40% in experiment [6]; 0% in [7]; 60% in experiment [8]; 100% in experiment [9]; 90% in experiment [10].
For `Cc1sc(-c2ccc(Br)cc2)nc1C1C(=O)[C@H]2C[C@@H](C1=O)C2(C)C` (stereo partly drawn) [Compound T121] the same measures were 70%, 0%, 80%, 100% and 90%.
